Here are results for four molecules from patent US20170112737A1, “COSMETICS AND PHARMACEUTICAL APPLICATIONS OF GALLIC ACID AND GALLIC ACID DERIVATIVES” (GREENPHARMA, priority 2014, published 2017).

The structures appear in SMILES notation. Several values for one entry are separate records, joined by “and”; a condition that tells them apart may be missing. Identical values can stand only once.

Common to all, as to format: cell-based, human
Assay [1] concerns TGK. Description: TGK immunolabeling in situ in NHEK cultures, loosestrife extracts (Example 5). The conditions noted are these: 72 hours, 1.5 mM. Here is the method: Normal human epidermal keratinocytes (NHEK); reference BIOalternatives K341, used at the third passage.
Culture conditions: 37° C., 5% CO2
Culture medium: keratinocytesSFM complemented with an epidermal growth factor (EGF) 0.25 ng/ml, a pituitary extract (PE) 25 μg/ml and gentamycin 25 μg/ml.
Experiment medium: keratinocytesSFM complemented with gentamycin 25 μg/ml.
The keratinocytes have been sowed and cultured to confluence in 96-well plates and then, the medium has been replaced by an experiment medium containing, or not (control test), the tested extract or the reference (CaCl2 at 1.5 mM) and the cells have been incubated for 72 hours. All experimental conditions have been realized with n=3, for each marker.
After incubation, the test medium has been withdrawn and the cells have been rinsed, fixed and permeabilized. […] The acquisition of the images has been carried out with a high-resolution imaging system, INCell Analyzer™ ([…] (GE Healthcare). For each well, 5 captures of digitized images have been performed. The labelings have been quantified by measurement of the fluorescence intensity of the proteins divided by the number of nucleuses identified by the Hoechst (integration of the digital data by the software Developer Toolbow 1.5, GE Healthcare). […]
The TGK expression is given as the Fluorescence intensity/Number of cells (UA)

In assay [2] the test system is TGK. The assay can be described thus: TGK immunolabeling in situ in NHEK cultures (Example 3). The conditions noted are these: 72 hours; for TGK Fluorescence intensity/Number of cells: individual values (n=3); for TGK expression in the NHEK cultures (in words): activity higher than CaCl2 reference as by 10 μg/ml. The protocol:
Normal human epidermal keratinocytes (NHEK); reference BIOalternatives K341, used at the third passage. Culture conditions: 37° C., 5% CO2 Culture medium: keratinocytesSFM complemented with an epidermal growth factor (EGF) 0.25 ng/ml, a pituitary extract (PE) 25 μg/ml and gentamycin […]. Experiment medium: keratinocytesSFM complemented with gentamycin 25 μg/ml. The keratinocytes have been sowed and cultured to confluence in 96-well plates and then, the medium has been replaced by an experiment medium containing, or not (control test), the tested extract or the reference (CaCl2 at 1.5 mM) and the cells have been incubated for 72 hours. All experimental conditions have been realized with n=3, for each marker. After incubation, the test medium has been withdrawn and the cells have been rinsed, fixed and permeabilized. The cells have been marked with the primary antibodies directed against the considered proteins (TGK). […] In parallel, the nucleuses of the cells have been stained by the Hoechst 33258 (bisbenzimide). The acquisition of the images has been carried out with a high-resolution imaging system, INCell AnalyzerTM 1000 (GE Healthcare). For each well, 5 captures of digitized images have been performed. The labelings have been quantified by measurement of the fluorescence intensity of the proteins divided by the number of nucleuses identified by the Hoechst (integration of the digital data by the software Developer Toolbow 1.5, GE Healthcare).

Assay [3] deals with procollagen I. Description: ELISA of procollagen I release by reconstructed skins in depleted medium. The conditions noted are these: reconstructed skins in depleted culture medium, 30 μg/ml and 60 μg/ml, D9. Here is the method:
(§1) Human skins reconstructed from a culture of keratinocytes sowed on a collagen lattice containing fibroblasts. Depleted culture medium: Epilife and supplements (without IGF-1 and without hydrocortisone)+CaCl2 1.5 mM+vitamin C (50 μg/ml). The reconstructed skins have been placed during the passage at the air-liquid interface (D0) in a 6-well plate in the depleted culture medium containing, or not (deficient control condition), the tested compounds. Afterwards, the reconstructed skins have been cultured for 9 days with the renewal of the culture medium containing, or not, the tested compounds every 2 to 3 days from D0 to D5, and then every day between D5 and D9. In parallel, a culture of the reconstructed skins in a complete medium has been realized, as a control test. The evaluation of the tested compound has been performed: • By histological analysis, by the histological observation of the epidermal thickness after HES (Hematoxylin-Eosin-Saffron) staining, • By RT-qPCR, by analysis of the expression of 16 markers (2 of which are reference genes) selected for their importance in cutaneous ageing, on the mRNAs extracted from the reconstructed skins for each treatment, and • By quantifying the release of MMP-1, MMP-3 and procollagen I in the suspensions of the cultures on D9, by ELISA assay, using ELISA assay kits used according to the instructions of the supplier.
Background: In an ELISA, binding on a coated surface is turned into a signal by an enzyme label.

Assay [4] concerns MMP-3. Description: ELISA of MMP-3 release by reconstructed skins in depleted medium. The conditions noted are these: reconstructed skins in depleted culture medium, 30 μg/ml and 60 μg/ml, D9. The protocol:
as §1

Assay [5] has as its system reconstructed skins. Description: RT-qPCR of cutaneous ageing markers in reconstructed skins in depleted medium. The conditions noted are these: reconstructed skins in deficient medium, 30 μg/ml and 60 μg/ml, dose-dependent. Here is the method:
as §1, with “fibroblasts. The keratinocytes are cultured at 37° C., 5% CO2, at the air-liquid interface in one of the following media:” for “fibroblasts.”, “μg/ml). The following cultures have been realized: • Untreated reconstructed skins, • Skins reconstructed in a depleted medium, • Skins reconstructed in a depleted medium, each treated by a compound tested hereinabove, at a concentration of 30 μg/ml or 60 μg/ml.” for “μg/ml).”, “test. All experimental conditions have been realized with n=4.” for “test.”
(In qPCR the cycle at which signal appears reflects the starting amount.)

Assay [6] relates to MMP-1. Description: ELISA of MMP-1 release by reconstructed skins in depleted medium. The conditions noted are these: reconstructed skins in depleted culture medium, 30 μg/ml and 60 μg/ml, D9. Here is the method:
as §1

Assay [7] relates to reconstructed skins. Description: Histological analysis (HES) of reconstructed skins in depleted medium. Conditions: 30 μg/ml and 60 μg/ml, 9 days. Here is the method:
Human skins reconstructed from a culture of keratinocytes sowed on a collagen lattice containing fibroblasts. The keratinocytes are cultured at 37° C., 5% CO2, at the air-liquid interface in one of the following media: Depleted culture medium: Epilife and supplements (without IGF-1 and without hydrocortisone)+CaCl2 1.5 mM+vitamin C (50 μg/ml). The following cultures have been realized: • Untreated reconstructed skins, • Skins reconstructed in a depleted medium, • Skins reconstructed in a depleted medium, each treated by a compound tested hereinabove, at a concentration of 30 μg/ml or 60 μg/ml. […] The evaluation of the tested compound has been performed: • By histological analysis, by the histological observation of the epidermal thickness after HES (Hematoxylin-Eosin-Saffron) staining, • By RT-qPCR, by analysis of the expression of 16 markers (2 of which are reference genes) selected for their importance in cutaneous ageing, on the mRNAs extracted from the reconstructed skins for each treatment, and • By quantifying the release of MMP-1, MMP-3 and procollagen I in the suspensions of the cultures on D9, by ELISA assay, using ELISA assay kits used according to the instructions of the supplier.

For `[Ca+2].[Cl-].[Cl-]` [CaCl2, reference compound], in assay [1], the “TGK expression Average (Fluorescence intensity/Number of cells)” value is recorded as 69610 UA and the “TGK expression, Control test %” value worked out at 316%. Besides, in assay [2] (1.5 mM), the “TGK % Control test” value is 473%; the “TGK % Stimulation” value is listed as 373%; the “TGK Fluorescence intensity/Number of cells, Average” value is recorded as 29160 UA; the “TGK Fluorescence intensity/Number of cells” value was 24066 UA and 30013 UA and 23527 UA. In assay [2] (1.5 mM, listed as Ca), the “TGK Fluorescence intensity/Number of cells” value is 22987 UA and 24146 UA and 32180 UA; the “TGK % Control test” value is listed as 425%; the “TGK % Stimulation” value is reported as 325%; the “TGK Fluorescence intensity/Number of cells, Average” value is 20404 UA.

As for `O=C1OC[C@H]2OC(=O)c3cc(O)c(O)c(O)c3-c3c(O)c(O)c(O)c4c3C(=O)O[C@H]([C@H]3OC(=O)c5c-4c(O)c(O)c(O)c5[C@H]3O)[C@@H]2OC(=O)c2cc(O)c(O)c(O)c2-c2c1cc(O)c(O)c2O` [Castalagin], in assay [2] (0.0011 mg/ml), the “TGK % Control test” value was 202%; the “TGK % Stimulation” value came to 162%; the “TGK Fluorescence intensity/Number of cells, Average” value is on record as 16135 UA; the “TGK Fluorescence intensity/Number of cells” value was 21020 UA and 15623 UA and 11760 UA. In assay [2] (0.003 mg/ml), the “TGK % Control test” value turned out to be 436%; the “TGK % Stimulation” value was determined as 330%; the “TGK Fluorescence intensity/Number of cells, Average” value is on record as 26867 UA; the “TGK Fluorescence intensity/Number of cells” value is 30752 UA and 20672 UA and 23177 UA. In assay [2] (0.01 mg/ml), the “TGK % Control test” value came to 714%; the “TGK % Stimulation” value is 614%; the “TGK Fluorescence intensity/Number of cells, Average” value turned out to be 44055 UA; the “TGK Fluorescence intensity/Number of cells” value was 59547 UA and 22164 UA and 50453 UA. Besides, the “TGK expression in the NHEK cultures (in words)” value (shortened to “TGK expression … (in words)”) in assay [2] is “induce the TGK expression in the NHEK cultures in a dose-dependent fashion”.

Consider `O=C(O)c1cc(O)c(O)c(O)c1` [Gallic acid, gallic acid], for which, in assay [2] (0.0003 mg/ml), the “TGK % Control test” value was 285%; the “TGK % Stimulation” value is reported as 165%; the “TGK Fluorescence intensity/Number of cells, Average” value was determined as 16260 UA; the “TGK Fluorescence intensity/Number of cells” value is 18328 UA and 15263 UA and 15730 UA. Besides, in assay [2] (0.01 mg/ml), the “TGK % Control test” value was 688%; the “TGK % Stimulation” value was found to be 588%; the “TGK Fluorescence intensity/Number of cells, Average” value is 42738 UA; the “TGK Fluorescence intensity/Number of cells” value is 47924 UA and 36228 UA and 44065 UA. In addition, in assay [2] (0.03 mg/ml), the “TGK % Control test” value is 1110%; the “TGK % Stimulation” value was 1019%; the “TGK Fluorescence intensity/Number of cells, Average” value worked out at 60518 UA; the “TGK Fluorescence intensity/Number of cells” value is 73870 UA and 53013 UA and 81670 UA. Further, the “TGK expression … (in words)” value in assay [2] is on record as “induce the TGK expression in the NHEK cultures in a dose-dependent fashion”.

`O=C1OC[C@H]2OC(=O)c3cc(O)c(O)c(O)c3-c3c(O)c(O)c(O)c4c3C(=O)O[C@H]([C@H]3OC(=O)c5c-4c(O)c(O)c(O)c5[C@@H]3O)[C@@H]2OC(=O)c2cc(O)c(O)c(O)c2-c2c1cc(O)c(O)c2O` [Vescalagin]: the “release of procollagen I (ELISA)” value in assay [3] is “No modification”. Also, in assay [4], the “release of MMP-3 (ELISA)” value is “major and significant decrease”. For the same molecule, in assay [5], the “expression of the inflammation markers (RT-qPCR)” value was “decrease of the expression of IL1B and PTGS2 to a lesser extent”; the “expression of the marker of the extracellular matrix COLIA1 (RT-qPCR)” value was “increase of the expression of the marker of the extracellular matrix COLIA1”; the “expression of the markers involved in the degradation of the extracellular matrix (RT-qPCR)” value was “decrease of the expression of the genes MMP1, MMP3 and TFPI2”; the “expression of the markers of the cells of the basal layer (RT-qPCR)” value is “increase of the marker of the cell cycle MKI67”. Moreover, in assay [5], the “expression of the more tardive markers of the differentiation of the keratinocytes (RT-qPCR)” value was “decrease of the expression of TGM1 and CDSN”. Further, in assay [6], the “release of MMP-1 (ELISA)” value is “major and significant decrease”. Further, in assay [7], the “epidermis/dermis cohesion (HES)” value is on record as “Partial recovery of the epidermis/dermis cohesion” and the “histology (HES)” value is listed as “improvement of their histology”. Further, in assay [2] (0.0011 mg/ml), the “TGK % Control test” value is listed as 287%; the “TGK % Stimulation” value came to 187%; the “TGK Fluorescence intensity/Number of cells, Average” value was 17722 UA; the “TGK Fluorescence intensity/Number of cells” value was 22033 UA and 16688 UA and 14446 UA. Besides, in assay [2] (0.003 mg/ml), the “TGK % Control test” value turned out to be 589%; the “TGK % Stimulation” value is on record as 589%; the “TGK Fluorescence intensity/Number of cells, Average” value was 42460 UA; the “TGK Fluorescence intensity/Number of cells” value is 32859 UA and 40124 UA and 54396 UA. In assay [2] (0.01 mg/ml), the “TGK % Control test” value came to 702%; the “TGK % Stimulation” value is listed as 602%; the “TGK Fluorescence intensity/Number of cells, Average” value is reported as 43284 UA; the “TGK Fluorescence intensity/Number of cells” value was 27714 UA and 45383 UA and 98755 UA. In addition, the “TGK expression … (in words)” value in assay [2] is listed as “induce the TGK expression in the NHEK cultures in a dose-dependent fashion”.
